Patent publication US10125160B1, “Method of making cobalt and platinum based surfactants and using for cancer therapy” (Umm Al-Qura University, priority 2015, dated 2018)

Legend:
HEPG2 (liver carcinoma) = assay: Potential cytotoxicity by SRB assay, HEPG2; type: cell-based, human
Protocol: (§1) Potential cytotoxicity of the complex was tested using the method of Skehan et al. (1990). The tumor cell lines: MCF7 (Breast carcinoma), HEPG2 (liver carcinoma), (10^4 cells/well) had been supplied from National Cancer Institute Cairo Egypt, were plated in 96-multiwell plat for 24 h before treatment with the compounds to allow attachment of cell to the wall of the plate.
(§2) Different concentrations of the complexes under test (0, 1, 2.5, Sand 10 μg/ml) were added to the cell-monolayer (parent complex, parent complex with Co, parent complex with Pt). Triplicate wells were prepared for each individual dose. Monolayer cells were incubated with the complex for 48 h at 37 C° and in atmosphere of 5% CO2. After 48 h, Cells were fixed, washed and stained with Sulfurhodamine B stain. Excess stain was washed with acetic acid and attached stain was recovered with Tris EDTA buffer. Color intensity was measured in an ELISA reader. […]
(§3) Cobalt and Platinum benzidinium hydrogen selenite complexes as well as their parent were investigated as potential selective, anticancer drugs. […] The results of the cytotoxic activity on human tumor cell lines were determined according to the dose values of drug exposure for cell lines to reduce survival to 50% (Ic50). The experimental results recorded in Table (5) and plots of surviving fraction versus concentration in μg in FIGS. 2, 3).

MCF7 (Breast carcinoma) = assay: Potential cytotoxicity by SRB assay, MCF7; type: cell-based, human
Protocol: as §1, §2, §3

[1] = Surface tension and critical micelle concentration (Du-Nouy tensiometer); type: physicochemical; design: PC20: unit not given here
Protocol: Surface tension values of the synthesized complex solutions (parent complex, parent complex with Co, parent complex with Pt) were obtained at 30îC using Du-Nouy Tensiometer (Kruss K6 Type 4851) with a platinum ring. Apparent surface tension was measured about five times for the sample within 2 min interval between each reading. The averages of five determinations were plotted against −log C without any correction. The critical micelle concentration values were determined from the plot of surface tension versus concentration.
Table 4 summarizes the surface-active parameters such as critical micelle concentration (CMC), γCMC, and pC20 (the surfactant concentration required to reduce the surface tension of the solvent by 20 mN/m) determined from the curves of FIG. 1. Values of Γmax (the surface excess concentration of surfactant) and Amin (interfacial area occupied by the surfactant molecules) were calculated using the Gibbs adsorption equation:
Where (δγ/δ log C) is the maximum slope in each case; T is absolute temperature; R=[…] and N is Avogadro's number. The standard free energy of micellization (ΔG°mic) is calculated from the equation: ΔG°mic=RT in CMC (Eq 7)
The standard free energy of adsorption (ΔG°ads) is calculated according to the following equation: ΔG°ads=ΔG°mic−ΠCMCAmin (Eq 8)

[2] = SRB assay, 48 h, dose reducing survival to 50%
[3] = in vitro on the tumor cell line investigated
[4] = calculated using Gibbs adsorption equation

CCCCCCCCCC(=O)Nc1ccc(-c2ccc(N)cc2)cc1.O=[Se](O)O [parent, N-decanoylbenzidinum hydrogen selenite]
HEPG2 (IC50) (HEPG2 (liver carcinoma); [2]): −Ve | cytotoxic activity in words, HEPG2 (HEPG2 (liver carcinoma); [3]): no effect | MCF7 (IC50) (MCF7 (Breast carcinoma); [2]): −Ve | cytotoxic activity in words, MCF7 (MCF7 (Breast carcinoma); [3]): no effect | ΠCMC [1]: 33 mN/m | Amin (interfacial area occupied by surfactant molecules) [1, 4]: 1.80 nm^2 | Γmax × 10^−11 (surface excess concentration) [1, 4]: 9.1 × 10^−11 Mole/cm^2 | ΔGmic (standard free energy of micellization) ([1]; calculated, Eq 7): −27.64 KJ\mol | ΔGads (standard free energy of adsorption) ([1]; calculated, Eq 8): −64.21 KJ\mol | CMC × 10^−3 (critical micelle concentration) ([1]; from plot of surface tension versus concentration): 3.76 × 10^−3 | γCMC ([1]; surface tension at CMC): 39 mN/m | PC20 ([1]; surfactant concentration required to reduce surface tension of solvent by 20 mN/m): 3.50
